Results on 13 compounds are retold here after the NIST ThermoML archive (doi:10.1016/j.jct.2012.03.005).

For series [1] the following is noted: 101.33 kPa, Liquid, Vibrating tube method.
Series [2] in a line: activity coefficient (dimensionless); of the first substance listed, at infinite dilution; xn = mol fraction of the nth substance listed. Conditions: 101 kPa, Liquid, Chromatography, x1 = 0.

SMILES strings stand for the structures. Numbers after ± are expanded uncertainties.

As for `CCn1cc[n+](C)c1.CS(=O)(=O)[O-]` [1-ethyl-3-methylimidazolium methanesulfonate], the mass density is 1239.96 ± 0.43 kg/m3 in series [1] (298.15 K); 1233.22 ± 0.42 kg/m3 in series [1] (308.15 K); 1226.51 ± 0.42 kg/m3 in series [1] (318.15 K); 1219.84 ± 0.41 kg/m3 in series [1] (328.15 K); 1213.2 ± 0.41 kg/m3 in series [1] (338.15 K); 1206.63 ± 0.4 kg/m3 in series [1] (348.15 K). In series [1] (358.15 K), the mass density is 1200.08 ± 0.4 kg/m3.
Consider `C1CCOC1` [tetrahydrofuran] + CCn1cc[n+](C)c1.CS(=O)(=O)[O-], for which the activity coefficient in series [2] (308.15 K) is 5.42 ± 0.37; in series [2] (318.15 K) it was 5.3 ± 0.36; in series [2] (328.15 K), 5.2 ± 0.4; in series [2] (338.15 K), 5.1 ± 0.35; in series [2] (348.15 K), 5 ± 0.34; in series [2] (358.15 K), 4.91 ± 0.33.
`CCCCCCCCCC` [decane] + CCn1cc[n+](C)c1.CS(=O)(=O)[O-]: the activity coefficient worked out at 1320 ± 91 in series [2] (308.15 K); 1180 ± 82 in series [2] (318.15 K); 1040 ± 72 in series [2] (328.15 K); 925 ± 64 in series [2] (338.15 K); 835 ± 58 in series [2] (348.15 K); 762 ± 53 in series [2] (358.15 K).
On to `CCC(=O)CC` [pentan-3-one] + CCn1cc[n+](C)c1.CS(=O)(=O)[O-], for which the activity coefficient in series [2] (308.15 K) was determined as 8.08 ± 0.55; in series [2] (318.15 K), 7.96 ± 0.54; in series [2] (328.15 K), 7.86 ± 0.54; in series [2] (338.15 K), 7.75 ± 0.53; in series [2] (348.15 K), 7.63 ± 0.52; in series [2] (358.15 K), 7.53 ± 0.51.
For `C1CCCC1` [cyclopentane] + CCn1cc[n+](C)c1.CS(=O)(=O)[O-], the activity coefficient in series [2] (308.15 K) was determined as 46.2 ± 3.2; in series [2] (318.15 K), 42.2 ± 2.9; in series [2] (328.15 K) it was 39.5 ± 2.7; in series [2] (338.15 K), 36.1 ± 2.5; in series [2] (348.15 K) it was 33 ± 2.3.
As for `C1COCCO1` [1,4-dioxane] + CCn1cc[n+](C)c1.CS(=O)(=O)[O-], the activity coefficient turned out to be 2.6 ± 0.18 in series [2] (308.15 K); 2.63 ± 0.18 in series [2] (318.15 K); 2.67 ± 0.18 in series [2] (328.15 K); 2.69 ± 0.18 in series [2] (338.15 K); 2.72 ± 0.19 in series [2] (348.15 K); 2.73 ± 0.19 in series [2] (358.15 K).
As for `CC(C)=O` [acetone] + CCn1cc[n+](C)c1.CS(=O)(=O)[O-], the activity coefficient in series [2] (308.15 K) is 308 ± 21; in series [2] (318.15 K), 318 ± 22; in series [2] (328.15 K), 328 ± 23; in series [2] (338.15 K) it was 338 ± 23; in series [2] (348.15 K), 348 ± 24; in series [2] (358.15 K), 358 ± 25.
Take `c1ccsc1` [thiophene] + CCn1cc[n+](C)c1.CS(=O)(=O)[O-]: the activity coefficient in series [2] (308.15 K) turned out to be 1.87 ± 0.13; in series [2] (318.15 K), 1.92 ± 0.13; in series [2] (328.15 K), 1.96 ± 0.13; in series [2] (338.15 K), 2 ± 0.14; in series [2] (348.15 K), 2.05 ± 0.14; in series [2] (358.15 K) it was 2.09 ± 0.14.
Consider `CCO` [ethanol] + CCn1cc[n+](C)c1.CS(=O)(=O)[O-], for which the activity coefficient in series [2] (308.15 K) is 0.489 ± 0.037; in series [2] (318.15 K), 0.483 ± 0.037; in series [2] (328.15 K), 0.479 ± 0.037; in series [2] (338.15 K), 0.474 ± 0.037; in series [2] (348.15 K) it was 0.47 ± 0.04; in series [2] (358.15 K), 0.467 ± 0.036.
For the compound `CC#N` [acetonitrile] + CCn1cc[n+](C)c1.CS(=O)(=O)[O-], the activity coefficient in series [2] (308.15 K) was 0.799 ± 0.052; in series [2] (318.15 K), 0.818 ± 0.053; in series [2] (328.15 K), 0.841 ± 0.054; in series [2] (338.15 K), 0.86 ± 0.06; in series [2] (348.15 K), 0.877 ± 0.056; in series [2] (358.15 K), 0.892 ± 0.057.
For `CCCOCCC` [dipropyl ether] + CCn1cc[n+](C)c1.CS(=O)(=O)[O-], the activity coefficient in series [2] (308.15 K) was 80.3 ± 5.5; in series [2] (318.15 K), 72.7 ± 5; in series [2] (328.15 K), 67.5 ± 4.6; in series [2] (338.15 K) it was 62.8 ± 4.3; in series [2] (348.15 K), 58.1 ± 4.
The matching figures for `C1CCCCC1` [cyclohexane] + CCn1cc[n+](C)c1.CS(=O)(=O)[O-]: 83.6 ± 5.7, 73.9 ± 5.1, 67.6 ± 4.6, 59.6 ± 4.1 and 53.7 ± 3.7.
The matching figures for `COC(C)(C)C` [2-methoxy-2-methylpropane] + CCn1cc[n+](C)c1.CS(=O)(=O)[O-]: 23.6 ± 1.6, 22.5 ± 1.5, 21.7 ± 1.5, 20.7 ± 1.4 and 20 ± 1.4.
